± gives the expanded uncertainty stated by the source.
Test: xn = mol fraction of the nth substance listed
Details: 100 kPa, Liquid, Vibrating tube method

| Compound | mass density (293.15 K, x1 = 0.01) | mass density (293.15 K, x1 = 0.03) | mass density (293.15 K, x1 = 0.05) | mass density (303.15 K, x1 = 0.01) | mass density (303.15 K, x1 = 0.03) | mass density (303.15 K, x1 = 0.05) | mass density (313.15 K, x1 = 0.01) | mass density (313.15 K, x1 = 0.03) | mass density (313.15 K, x1 = 0.05) | mass density (323.15 K, x1 = 0.01) | mass density (323.15 K, x1 = 0.03) | mass density (323.15 K, x1 = 0.05) | mass density (333.15 K, x1 = 0.01) | mass density (333.15 K, x1 = 0.03) | mass density (333.15 K, x1 = 0.05) |
| --- | --- | --- | --- | --- | --- | --- | --- | --- | --- | --- | --- | --- | --- | --- | --- |
| [I-].[K+] [potassium iodide] + O | 1065.2 ± 0.2 kg/m3 | 1194 ± 0.3 kg/m3 | 1317.9 ± 0.4 kg/m3 | 1061.9 ± 0.2 kg/m3 | 1189.3 ± 0.3 kg/m3 | 1312.1 ± 0.4 kg/m3 | 1057.9 ± 0.2 kg/m3 | 1184.1 ± 0.3 kg/m3 | 1306 ± 0.4 kg/m3 | 1053.2 ± 0.2 kg/m3 | 1178.4 ± 0.3 kg/m3 | 1299.3 ± 0.4 kg/m3 | 1047.9 ± 0.2 kg/m3 | 1172.3 ± 0.3 kg/m3 | 1292.4 ± 0.4 kg/m3 |
| [Br-].[Rb+] [rubidium bromide] + O | 1068.6 ± 0.2 kg/m3 | 1204.6 ± 0.3 kg/m3 | 1336.9 ± 0.4 kg/m3 | 1065 ± 0.2 kg/m3 | 1199.7 ± 0.3 kg/m3 | 1331 ± 0.4 kg/m3 | 1060.7 ± 0.2 kg/m3 | 1194.5 ± 0.3 kg/m3 | 1324.9 ± 0.4 kg/m3 | 1056 ± 0.2 kg/m3 | 1188.9 ± 0.3 kg/m3 | 1318.6 ± 0.4 kg/m3 | 1050.9 ± 0.2 kg/m3 | 1182.9 ± 0.3 kg/m3 | 1312.2 ± 0.4 kg/m3 |
| [Cl-].[Rb+] [rubidium chloride] + O | 1048.3 ± 0.2 kg/m3 | 1144.2 ± 0.3 kg/m3 | 1237.9 ± 0.3 kg/m3 | 1044.8 ± 0.2 kg/m3 | 1139.8 ± 0.3 kg/m3 | 1232.8 ± 0.3 kg/m3 | 1040.7 ± 0.2 kg/m3 | 1135 ± 0.3 kg/m3 | 1227.5 ± 0.3 kg/m3 | 1036.1 ± 0.2 kg/m3 | 1130 ± 0.3 kg/m3 | 1222 ± 0.3 kg/m3 | 1031.2 ± 0.2 kg/m3 | 1124.7 ± 0.3 kg/m3 | 1216.3 ± 0.3 kg/m3 |
| [F-].[Rb+] [rubidium fluoride (RbF)] + O | 1048.7 ± 0.2 kg/m3 | 1150.6 ± 0.3 kg/m3 | 1250.3 ± 0.4 kg/m3 | 1045.7 ± 0.2 kg/m3 | 1146.5 ± 0.3 kg/m3 | 1246.1 ± 0.4 kg/m3 | 1042 ± 0.2 kg/m3 | 1141.9 ± 0.3 kg/m3 | 1241.4 ± 0.4 kg/m3 | 1037.6 ± 0.2 kg/m3 | 1137 ± 0.3 kg/m3 | 1236.2 ± 0.4 kg/m3 | 1032.6 ± 0.2 kg/m3 | 1131.6 ± 0.3 kg/m3 | 1230.6 ± 0.4 kg/m3 |
| [I-].[Rb+] [rubidium iodide (RbI)] + O | 1088.1 ± 0.2 kg/m3 | 1259.7 ± 0.4 kg/m3 | 1423.2 ± 0.5 kg/m3 | 1084.2 ± 0.2 kg/m3 | 1254.2 ± 0.4 kg/m3 | 1416.3 ± 0.5 kg/m3 | 1079.8 ± 0.2 kg/m3 | 1248.4 ± 0.4 kg/m3 | 1409.2 ± 0.5 kg/m3 | 1074.9 ± 0.3 kg/m3 | 1242.3 ± 0.4 kg/m3 | 1402 ± 0.5 kg/m3 | 1069.6 ± 0.3 kg/m3 | 1235.9 ± 0.4 kg/m3 | 1394.6 ± 0.5 kg/m3 |
| [Br-].[Na+] [sodium bromide] + O | 1043.6 ± 0.2 kg/m3 | 1129.5 ± 0.3 kg/m3 | 1217.1 ± 0.3 kg/m3 | 1040 ± 0.2 kg/m3 | 1125.2 ± 0.3 kg/m3 | 1211.8 ± 0.3 kg/m3 | 1035.8 ± 0.2 kg/m3 | 1120.4 ± 0.3 kg/m3 | 1206.2 ± 0.3 kg/m3 | 1031.1 ± 0.2 kg/m3 | 1115.1 ± 0.3 kg/m3 | 1200.2 ± 0.3 kg/m3 | 1026 ± 0.2 kg/m3 | 1109.4 ± 0.3 kg/m3 | 1194 ± 0.3 kg/m3 |
| [Cl-].[Na+] [sodium chloride] + O | 1021.3 ± 0.2 kg/m3 | 1066.2 ± 0.2 kg/m3 | 1110.8 ± 0.3 kg/m3 | 1018.3 ± 0.2 kg/m3 | 1062.4 ± 0.2 kg/m3 | 1106.2 ± 0.3 kg/m3 | – | 1058 ± 0.2 kg/m3 | 1101.6 ± 0.3 kg/m3 | 1010.1 ± 0.2 kg/m3 | 1052.4 ± 0.2 kg/m3 | 1096.4 ± 0.3 kg/m3 | 1005.1 ± 0.2 kg/m3 | 1047.6 ± 0.2 kg/m3 | 1090.9 ± 0.3 kg/m3 |
| [F-].[Na+] [sodium fluoride] + O | 1022.7 ± 0.2 kg/m3 | – | – | 1019.7 ± 0.2 kg/m3 | – | – | 1016 ± 0.2 kg/m3 | – | – | 1011.5 ± 0.2 kg/m3 | – | – | 1006.5 ± 0.2 kg/m3 | – | – |
| [I-].[Na+] [sodium iodide] + O | 1061.7 ± 0.2 kg/m3 | 1186.7 ± 0.3 kg/m3 | 1309.5 ± 0.4 kg/m3 | 1058.4 ± 0.2 kg/m3 | 1181.8 ± 0.3 kg/m3 | 1303.2 ± 0.4 kg/m3 | 1054.2 ± 0.2 kg/m3 | 1176.3 ± 0.3 kg/m3 | 1296.5 ± 0.4 kg/m3 | 1049.5 ± 0.2 kg/m3 | 1169.1 ± 0.3 kg/m3 | 1289.5 ± 0.4 kg/m3 | 1044.1 ± 0.2 kg/m3 | 1163.4 ± 0.3 kg/m3 | 1282.2 ± 0.4 kg/m3 |

— the NIST ThermoML archive (doi:10.1021/je500420g)
